This is an account of results in patent US20240158418A1 (C4 Therapeutics, Inc., priority 2021, published 2024).

SMILES strings stand for the structures. Read-outs that look alike come from different tables or passages of the source.

Type in all cases: cell-based
In one experiment the target is T1, EGFR L858R-T790M (Homo sapiens, UniProt P00533, L858R/T790M).
T1 construct: NCI-H1975 (harboring EGFR heterozygous L858R-T790M mutations); host or cells: NCI-H1975
In words: EGFR degradation, Total EGFR (L858R-specific) HTRF, NCI-H1975. As to conditions: 6 hours. A digest of the protocol: (§1)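 Cells in RPMI 1640 + 10% FBS treated 6 h at 37°C with compound, 11-point half-log titration from 10 μM top, in duplicate. pY1068 and total EGFR read by HTRF (pan-EGFR antibody for wild-type A431; L858R-specific for mutants); IC50 for phospho inhibition, DC50 for 50% degradation.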

In the next experiment the target is T2, pY1068 EGFR L858R-T790M (Homo sapiens, UniProt P00533, L858R/T790M).
T2 construct: NCI-H1975 (harboring EGFR heterozygous L858R-T790M mutations); host or cells: NCI-H1975
T2 sequence (P00533 25-1210 T790M/L858R): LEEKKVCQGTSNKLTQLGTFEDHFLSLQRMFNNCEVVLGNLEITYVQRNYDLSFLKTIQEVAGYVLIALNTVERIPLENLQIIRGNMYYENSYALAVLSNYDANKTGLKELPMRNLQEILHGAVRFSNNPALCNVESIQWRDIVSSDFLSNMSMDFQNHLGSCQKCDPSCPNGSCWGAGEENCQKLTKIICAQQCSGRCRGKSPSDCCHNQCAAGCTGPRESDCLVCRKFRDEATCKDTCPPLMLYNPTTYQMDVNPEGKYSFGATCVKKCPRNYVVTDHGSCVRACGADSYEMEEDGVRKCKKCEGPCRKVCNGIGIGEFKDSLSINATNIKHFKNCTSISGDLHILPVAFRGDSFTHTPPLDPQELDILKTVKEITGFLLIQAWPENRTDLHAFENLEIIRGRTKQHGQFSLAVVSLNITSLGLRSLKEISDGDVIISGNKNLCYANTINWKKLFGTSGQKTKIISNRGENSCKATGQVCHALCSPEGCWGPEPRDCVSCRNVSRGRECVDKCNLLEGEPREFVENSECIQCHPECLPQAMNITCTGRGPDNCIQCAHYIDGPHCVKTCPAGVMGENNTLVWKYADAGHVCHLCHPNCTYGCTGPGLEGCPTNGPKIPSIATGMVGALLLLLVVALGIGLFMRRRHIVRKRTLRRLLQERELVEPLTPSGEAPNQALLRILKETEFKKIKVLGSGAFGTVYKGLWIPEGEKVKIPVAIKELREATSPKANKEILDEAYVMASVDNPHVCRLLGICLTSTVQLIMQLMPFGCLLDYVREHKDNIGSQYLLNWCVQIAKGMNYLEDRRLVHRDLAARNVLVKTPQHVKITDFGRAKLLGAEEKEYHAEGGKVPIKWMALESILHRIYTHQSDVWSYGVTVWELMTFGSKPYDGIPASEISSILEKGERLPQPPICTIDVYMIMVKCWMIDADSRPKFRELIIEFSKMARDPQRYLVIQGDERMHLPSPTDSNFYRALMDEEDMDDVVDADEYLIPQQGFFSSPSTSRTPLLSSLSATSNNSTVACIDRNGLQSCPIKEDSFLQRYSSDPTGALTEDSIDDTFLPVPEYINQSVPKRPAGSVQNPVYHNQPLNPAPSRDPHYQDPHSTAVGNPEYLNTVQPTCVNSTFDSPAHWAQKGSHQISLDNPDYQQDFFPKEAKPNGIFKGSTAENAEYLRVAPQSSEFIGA
As to the kind of experiment: Phospho-EGFR (pY1068) inhibition HTRF, NCI-H1975. The conditions noted are these: 6 hours, read-out: pEGFR IC50. An excerpt:
(§2) NCI-H1975 (harboring EGFR heterozygous L858R-T790M mutations) and NCI-H3255 (harboring EGFR heterozygous L858R mutation) were purchased from ATCC and NCI, respectively. NCI-H1975+CS (harboring EGFR heterozygous L858R-T790M-C797S mutations) was generated using CRISPR technology to introduce the additional C797S mutation by Horizon Discovery. A431 (harboring EGFR wildtype) was purchased from ATCC. RPMI 1640 no-phenol red medium and fetal bovine serum (FBS) were purchased from Gibco (Grand Island, NY, USA). Cell culture flasks and 384-well microplates were acquired from VWR (Radnor, PA, USA). Phosphorylated (pY1068) EGFR and Total EGFR (using L858R-specific detection antibody and pan-EGFR antibody for EGFR mutant cell lines and EGFR wild-type cell lines, respectively) HTRF assay kits were purchased from Cisbio (Bedford, MA, USA).
(§3) Degradation of EGFR protein containing L858R mutation or wild-type was determined based on quantification of FRET signal using a Total EGFR (L858R-specific or pan-EGFR detecting) HTRF assay kit. Phospho-EGFR (pEGFR) inhibition was determined based on quantification of FRET signal using a pY1068 EGFR HTRF assay kit. In separate assay plates, test compounds were added to the 384-well plate from a top concentration of 10 μM with 11 points, half log titration in duplicates. For each assay, 12.5 uL of cells suspended in assay media (RPMI 1640 no-phenol red medium+10% FBS) at cell densities indicated for each cell line in Table 8 below were dispensed using a multi-channel pipette to 384-well low volume white HTRF microplates containing a duplicate concentration range of test compounds and DMSO controls. The plates were kept at 37° C. with 5% CO2 for 6 hours and then incubated with either phospho EGFR or Total EGFR HTRF detection antibodies according to the cell line and EGFR mutant being assayed. Cells treated in the absence of the test compound were the negative control. Positive control was set by wells containing all reagents but no cells. FRET signal was acquired on EnVision™ Multilabel Reader (PerkinElmer, Santa Clara, CA, USA). Compound concentration that achieves 50% degradation and inhibition was reported as DC50 and IC50, respectively.

A further experiment deals with EGFR L858R (Homo sapiens, UniProt P00533, L858R). In words: EGFR degradation, Total EGFR (L858R-specific) HTRF, NCI-H3255. Also on record: NCI-H3255 (harboring EGFR heterozygous L858R mutation); host or cells: NCI-H3255. As to conditions: 6 hours. A digest of the protocol: as §1
EGFR L858R, sequence (P00533 25-1210 L858R): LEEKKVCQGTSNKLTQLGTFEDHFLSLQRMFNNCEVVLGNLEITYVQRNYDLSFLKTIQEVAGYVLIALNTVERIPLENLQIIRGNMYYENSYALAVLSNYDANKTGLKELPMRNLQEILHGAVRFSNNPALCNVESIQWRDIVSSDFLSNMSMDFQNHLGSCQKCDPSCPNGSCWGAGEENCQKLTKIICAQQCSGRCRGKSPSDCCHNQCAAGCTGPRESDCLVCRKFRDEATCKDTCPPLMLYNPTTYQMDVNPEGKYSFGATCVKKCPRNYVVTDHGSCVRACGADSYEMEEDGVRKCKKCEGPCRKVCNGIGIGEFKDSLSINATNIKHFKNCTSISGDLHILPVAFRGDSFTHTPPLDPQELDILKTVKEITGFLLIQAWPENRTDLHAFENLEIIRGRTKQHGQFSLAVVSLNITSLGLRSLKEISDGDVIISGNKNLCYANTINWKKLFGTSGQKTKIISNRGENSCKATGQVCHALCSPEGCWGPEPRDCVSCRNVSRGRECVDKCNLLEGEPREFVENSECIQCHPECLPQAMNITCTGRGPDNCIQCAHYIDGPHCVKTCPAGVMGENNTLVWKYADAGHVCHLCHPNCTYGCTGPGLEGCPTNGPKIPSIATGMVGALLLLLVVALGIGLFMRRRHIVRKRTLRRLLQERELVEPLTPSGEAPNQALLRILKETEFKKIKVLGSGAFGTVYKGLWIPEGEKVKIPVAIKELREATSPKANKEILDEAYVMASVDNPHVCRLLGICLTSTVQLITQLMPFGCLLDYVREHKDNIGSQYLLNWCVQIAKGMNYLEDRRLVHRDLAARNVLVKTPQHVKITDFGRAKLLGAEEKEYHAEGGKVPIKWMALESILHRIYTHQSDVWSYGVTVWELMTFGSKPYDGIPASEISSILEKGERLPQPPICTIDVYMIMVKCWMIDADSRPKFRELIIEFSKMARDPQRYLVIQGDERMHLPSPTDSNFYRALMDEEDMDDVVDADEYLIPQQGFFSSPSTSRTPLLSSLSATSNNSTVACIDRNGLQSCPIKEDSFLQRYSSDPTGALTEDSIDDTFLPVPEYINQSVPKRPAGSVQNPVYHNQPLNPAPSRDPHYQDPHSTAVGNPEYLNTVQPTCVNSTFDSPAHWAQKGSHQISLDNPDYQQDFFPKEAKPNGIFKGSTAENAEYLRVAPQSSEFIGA
For another experiment, the target named is T3, pY1068 EGFR L858R (Homo sapiens, UniProt P00533, L858R).
T3 construct: NCI-H3255 (harboring EGFR heterozygous L858R mutation); host or cells: NCI-H3255
As to the kind of experiment: Phospho-EGFR (pY1068) inhibition HTRF, NCI-H3255. As to conditions: 6 hours, read-out: pEGFR IC50.
Description: as §2, §3

Another experiment concerns the target T4, EGFR L858R-T790M-C797S (Homo sapiens, UniProt P00533, C797S/L858R/T790M).
T4 construct: generated using CRISPR technology to introduce the additional C797S mutation by Horizon Discovery; host or cells: NCI-H1975+CS (CRISPR knock-in of C797S)
In words: EGFR degradation, Total EGFR (L858R-specific) HTRF, NCI-H1975+CS. The conditions noted are these: 6 hours. A digest of the protocol:
as §1

In experiment [1] the target is T5, pY1068 EGFR L858R-T790M-C797S (Homo sapiens, UniProt P00533, C797S/L858R/T790M).
T5 construct: generated using CRISPR technology to introduce the additional C797S mutation by Horizon Discovery; host or cells: NCI-H1975+CS (CRISPR knock-in of C797S)
As to the kind of experiment: Phospho-EGFR (pY1068) inhibition HTRF, NCI-H1975+CS. The conditions noted are these: 6 hours, read-out: pEGFR IC50.
Description: as §2, §3

The mark [2] stands for this setting: H1975 (L858R-T790M), read-out: tEGFR DC50.
[3] abbreviates: Table 9A, NCI-H1975 cells, Total EGFR HTRF, read-out: H1975 EGFR DC50.
Where [4] appears, read: Table 9A, NCI-H3255 cells, Total EGFR HTRF, read-out: H3255 EGFR DC50.
Where [5] appears, read: Table 9A, NCI-H1975+CS cells, Total EGFR HTRF, read-out: H1975+ CS EGFR DC50.

T1 sequence (P00533 25-1210 T790M/L858R): as the sequence (P00533 25-1210 T790M/L858R) above
T4 sequence (P00533 25-1210 T790M/C797S/L858R): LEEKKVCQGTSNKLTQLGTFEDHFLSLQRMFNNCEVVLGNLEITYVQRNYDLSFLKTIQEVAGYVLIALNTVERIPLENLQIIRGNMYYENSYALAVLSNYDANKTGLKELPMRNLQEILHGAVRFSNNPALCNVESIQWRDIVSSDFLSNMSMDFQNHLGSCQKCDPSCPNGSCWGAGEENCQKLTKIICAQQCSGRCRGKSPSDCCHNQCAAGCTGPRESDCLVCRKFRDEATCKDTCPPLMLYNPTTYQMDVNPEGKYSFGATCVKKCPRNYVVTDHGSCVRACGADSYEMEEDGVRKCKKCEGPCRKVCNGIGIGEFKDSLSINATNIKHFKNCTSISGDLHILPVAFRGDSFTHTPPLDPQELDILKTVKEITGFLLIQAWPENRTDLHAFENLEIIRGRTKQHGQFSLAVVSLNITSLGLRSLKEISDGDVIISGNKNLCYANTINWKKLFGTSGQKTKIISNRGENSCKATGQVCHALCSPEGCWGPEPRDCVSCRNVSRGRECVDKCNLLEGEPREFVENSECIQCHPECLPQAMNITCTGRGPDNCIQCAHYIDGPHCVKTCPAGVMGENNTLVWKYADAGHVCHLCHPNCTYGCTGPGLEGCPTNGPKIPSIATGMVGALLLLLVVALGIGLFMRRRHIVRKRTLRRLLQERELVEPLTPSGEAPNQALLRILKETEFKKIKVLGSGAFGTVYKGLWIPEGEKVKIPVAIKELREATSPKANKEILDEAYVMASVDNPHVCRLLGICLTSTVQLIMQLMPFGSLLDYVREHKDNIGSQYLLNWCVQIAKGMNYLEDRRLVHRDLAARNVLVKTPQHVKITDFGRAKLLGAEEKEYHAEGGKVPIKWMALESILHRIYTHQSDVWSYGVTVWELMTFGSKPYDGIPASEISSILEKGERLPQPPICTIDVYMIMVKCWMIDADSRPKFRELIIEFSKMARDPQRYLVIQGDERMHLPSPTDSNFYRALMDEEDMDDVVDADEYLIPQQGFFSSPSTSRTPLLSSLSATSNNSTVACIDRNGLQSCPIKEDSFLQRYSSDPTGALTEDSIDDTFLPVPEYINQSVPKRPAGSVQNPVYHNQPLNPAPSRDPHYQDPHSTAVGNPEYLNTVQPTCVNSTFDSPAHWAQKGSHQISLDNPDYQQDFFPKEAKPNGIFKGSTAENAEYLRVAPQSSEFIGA

In the case of `O=C1CC[C@H](Nc2ccc(N3CCC(O)(CC(=O)N4CC5(CCN(c6ccc(-c7cc(F)c8c(c7)C(=O)N(C(C(=O)Nc7nccs7)c7ncn9c7CCC9)C8)cc6)CC5)C4)CC3)c(F)c2)C(=O)N1` (stereo partly shown) [Compound 12], the results for the DC50 on EGFR L858R-T790M (setting [2]) and on EGFR L858R-T790M (setting [3]) were 15 nM and less than 50 nM, respectively. Also, the IC50 on pY1068 EGFR L858R-T790M is 20 nM.
Consider `O=C1CCC(Nc2ccc(C3CCN(CC(=O)N4CC5(C4)CN(c4ccc(-c6cc(F)c7c(c6)C(=O)N(C(C(=O)Nc6nccs6)c6ncn8c6CCC8)C7)cc4)C5)CC3(F)F)cc2)C(=O)N1` (single isomer, unassigned) [Compound 4, 2-(6,7-dihydro-5H-pyrrolo[1,2-c]imidazol-1-yl)-2-(6-(4-(6-(2-(4-(4-((2,6-dioxopiperidin-3-yl)amino)phenyl)-3,3-difluoropiperidin-1-yl)acetyl)-2,6-diazaspiro[3.3]heptan-2-yl)phenyl)-4-fluoro-1-oxoisoindolin-2-yl)-N-(thiazol-2-yl)acetamide], for which the DC50 at EGFR L858R-T790M (setting [2]) is 15 nM; on EGFR L858R-T790M (setting [3]), less than 50 nM; at EGFR L858R (H3255 (L858R), read-out: tEGFR DC50), 17 nM; on EGFR L858R-T790M-C797S (H1975 + CS (L858R-T790M-C797S), read-out: tEGFR DC50), 33 nM. Besides, the IC50 at pY1068 EGFR L858R-T790M amounted to 15 nM; at pY1068 EGFR L858R, 16 nM; in experiment [1], 22 nM.
With `O=C1CCC(Nc2ccc(C3CCN(CC(=O)N4CCC(Oc5ccc(-c6cc(F)c7c(c6)C(=O)N(C(C(=O)Nc6nccs6)c6ncn8c6CCC8)C7)cc5)CC4)CC3)cc2F)C(=O)N1` (stereo not shown) [Compound 34, 2-(6,7-dihydro-5H-pyrrolo[1,2-c]imidazol-1-yl)-2-(6-(4-((1-(2-(4-(4-((2,6-dioxopiperidin-3-yl)amino)-3-fluorophenyl)piperidin-1-yl)acetyl)piperidin-4-yl)oxy)phenyl)-4-fluoro-1-oxoisoindolin-2-yl)-N-(thiazol-2-yl)acetamide], the values for the DC50 on EGFR L858R-T790M (setting [3]), on EGFR L858R (setting [4]) and on EGFR L858R-T790M-C797S (setting [5]) were 50 to 150 nM, less than 50 nM and less than 50 nM, respectively.
Consider `O=C1CC[C@H](Nc2ccc(C3CCN(CC(=O)N4CC5(C4)CN(c4ccc(-c6cc(F)c7c(c6)C(=O)N(C(C(=O)Nc6nccs6)c6ncn8c6CCC8)C7)cc4)C5)CC3)c(F)c2)C(=O)N1` (stereo partly drawn) [Compound 48, 2-(6,7-dihydro-5H-pyrrolo[1,2-c]imidazol-1-yl)-2-[6-[4-[2-[2-[4-[4-[[(3S)-2,6-dioxo-3-piperidyl]amino]-2-fluoro-phenyl]-1-piperidyl]acetyl]-2,6-diazaspiro[3.3]heptan-6-yl]phenyl]-4-fluoro-1-oxo-isoindolin-2-yl]-N-thiazol-2-yl-acetamide], for which the DC50 at EGFR L858R-T790M (setting [3]), at EGFR L858R (setting [4]) and on EGFR L858R-T790M-C797S (setting [5]) was less than 50 nM throughout.
On to `Cn1nc(N2CCC(=O)NC2=O)c2ccc(C3CCN(CC(=O)N4CCN(c5ccc(-c6cc(F)c7c(c6)C(=O)N(C(C(=O)Nc6nccs6)c6ncn8c6CCC8)C7)cc5)CC4)CC3)cc21` (stereo not shown) [Compound 17, 2-(6,7-dihydro-5H-pyrrolo[1,2-c]imidazol-1-yl)-2-(6-(4-(4-(2-(4-(3-(2,4-dioxotetrahydropyrimidin-1(2H)-yl)-1-methyl-1H-indazol-6-yl)piperidin-1-yl)acetyl)piperazin-1-yl)phenyl)-4-fluoro-1-oxoisoindolin-2-yl)-N-(thiazol-2-yl)acetamide], for which the DC50 on EGFR L858R-T790M (setting [3]), on EGFR L858R (setting [4]) and at EGFR L858R-T790M-C797S (setting [5]) was less than 50 nM in each case.
With `O=C1CCC(Nc2ccc(C3CCN(CC(=O)N4CCN(c5ccc(-c6cc(F)c7c(c6)C(=O)N(C(C(=O)Nc6nccs6)c6ncn8c6C[C@@H](F)C8)C7)cc5)CC4)CC3)cc2)C(=O)N1` (mixture of isomers) [Compound 43, (2RS)-2-[6-[4-[4-[2-[4-[4-[[(3RS)-2,6-Dioxo-3-piperidyl]amino]phenyl]-1-piperidyl]acetyl]piperazin-1-yl]phenyl]-4-fluoro-1-oxo-isoindolin-2-yl]-2-[(6R)-6-fluoro-6,7-dihydro-5H-pyrrolo[1,2-c]imidazol-1-yl]-N-thiazol-2-yl-acetamide], the DC50 on EGFR L858R-T790M (setting [3]), at EGFR L858R (setting [4]) and on EGFR L858R-T790M-C797S (setting [5]) was less than 50 nM throughout.
Turning to `O=C1CCC(Nc2ccc(C3CCN(CC(=O)N4CCN(c5ccc(-c6cc(F)c7c(c6)C(=O)N(C(C(=O)Nc6ccccn6)c6ncn8c6CCC8)C7)cc5)CC4)CC3)cc2)C(=O)N1` (stereo not shown) [Compound 19, 2-(6,7-dihydro-5H-pyrrolo[1,2-c]imidazol-1-yl)-2-(6-(4-(4-(2-(4-(4-((2,6-dioxopiperidin-3-yl)amino)phenyl)piperidin-1-yl)acetyl)piperazin-1-yl)phenyl)-4-fluoro-1-oxoisoindolin-2-yl)-N-(pyridin-2-yl)acetamide], the DC50 on EGFR L858R-T790M (setting [3]) was 50 to 150 nM; at EGFR L858R (setting [4]), less than 50 nM; at EGFR L858R-T790M-C797S (setting [5]) it was less than 50 nM.
As for `O=C1CC[C@H](Nc2ccc(C3CCN(CC(=O)N4CCN(Cc5ccc(-c6cc(F)c7c(c6)C(=O)N(C(C(=O)Nc6nccs6)c6ncn8c6CCC8)C7)cc5)CC4)CC3)c(F)c2)C(=O)N1` (stereo partly drawn) [Compound 58, 2-(6,7-dihydro-5H-pyrrolo[1,2-c]imidazol-1-yl)-2-[6-[4-[[4-[2-[4-[4-[[(3S)-2,6-dioxo-3-piperidyl]amino]-2-fluoro-phenyl]-1-piperidyl]acetyl]piperazin-1-yl]methyl]phenyl]-4-fluoro-1-oxo-isoindolin-2-yl]-N-thiazol-2-yl-acetamide], the DC50 at EGFR L858R-T790M (setting [3]), on EGFR L858R (setting [4]) and on EGFR L858R-T790M-C797S (setting [5]) was less than 50 nM in each case.
Consider `O=C1CC[C@@H](Nc2ccc(C3CCN(CC(=O)N4CCC(Oc5ccc(-c6cc(F)c7c(c6)C(=O)N(C(C(=O)Nc6nccs6)c6ncn8c6CCC8)C7)cc5)CC4)CC3)cc2)C(=O)N1` (stereo partly drawn) [Compound 33, 2-(6,7-dihydro-5H-pyrrolo[1,2-c]imidazol-1-yl)-2-[6-[4-[[1-[2-[4-[4-[[(3R)-2,6-dioxo-3-piperidyl]amino]phenyl]-1-piperidyl]acetyl]-4-piperidyl]oxy]phenyl]-4-fluoro-1-oxo-isoindolin-2-yl]-N-thiazol-2-yl-acetamide], for which the DC50 on EGFR L858R-T790M (setting [3]), at EGFR L858R (setting [4]) and at EGFR L858R-T790M-C797S (setting [5]) was less than 50 nM throughout.
Regarding `O=C1CCC(Nc2ccc(C3CCN(CC(=O)N4CCN(c5ccc(-c6cc(F)c7c(c6)C(=O)N(C(C(=O)Nc6nccs6)c6ncn8c6CCC8)C7)cc5)CC4)CC3)c(C(F)F)c2)C(=O)N1` (stereo not shown) [Compound 15, 2-[6-[4-[4-[2-[4-[2-(difluoromethyl)-4-[(2,6-dioxo-3-piperidyl)amino]phenyl]-1-piperidyl]acetyl]piperazin-1-yl]phenyl]-4-fluoro-1-oxo-isoindolin-2-yl]-2-(6,7-dihydro-5H-pyrrolo[1,2-c]imidazol-1-yl)-N-thiazol-2-yl-acetamide], the DC50 on EGFR L858R-T790M (setting [3]), at EGFR L858R (setting [4]) and at EGFR L858R-T790M-C797S (setting [5]) was less than 50 nM throughout.
